Here are results for one compound from patent publication US9925280B2, “Hyperpolarized amino acids” (BRACCO IMAGING S.P.A., priority 2012, dated 2018).

The nature of this series: Solubility in anhydrous solvents. Type of series: physicochemical. The protocol:
The above components of the DNP mixture can be admixed according to any suitable technique and methodology known in the art. In a preferred embodiment, the amino acid and the hydroxide are first admixed as dry powders. The powder mixture is then dissolved in the anhydrous solvent, which preferably already contains the polarizing agent dissolved therein. […] Optionally, the DNP mixture may further contain a paramagnetic metal ion, for further increasing the polarisation levels in the compound to be polarised (see e.g. WO 2007/064226 herein incorporated by reference); preferably, the paramagnetic metal ion is in the form of a complex with a chelating agent, such as, for instance DOTA, DO3A, BOPTA or DTPA; preferably the paramagnetic metal ion is a Gadolinium (Gd^3+).

On to `NC(=O)CC[C@H](N)C(=O)O` [glutamine], for which the “solubility in anhydrous solvents” value was “very poor solubility”.
